Measured values published in PubChem BioAssay AID743151 (Broad Institute, 2013).
Activity calls are given as the source filed them.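 Rule for the calls: active = IC50 under 100 nM in each of the cell lines carrying a mutated TP53 gene; inactive = the rest.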

Legend:
Assay in all cases: cell killing across TP53-mutant lines, dose response, HeLa, COLO741, H2122, CellTiter-Glo, dry powder (AID 743151)
[1] = tested on: HeLa TP53-mutant viability, CellTiter-Glo, 48 h
[2] = tested on: H2122 TP53-mutant viability, CellTiter-Glo, 48 h; settings: measured here: H2122 viability IC50
[3] = tested on: COLO741 TP53-mutant viability, CellTiter-Glo, 48 h; settings: measured here: COLO741 viability IC50

Structure (SMILES): COc1cc2c(cc1OC)-c1cc(=Nc3c(C)cc(C)cc3C)n(C)c(=O)n1CC2
- IC50 [1]: > 10000 nM (inactive)
- IC50 [2]: > 10000 nM
- IC50 [3]: > 10000 nM

Structure (SMILES): CCN1N=C(c2ccc(N(CC)CC)cc2)[C@H](C)CC1=O
- IC50 [1]: > 10000 nM (inactive)
- IC50 [2]: > 10000 nM
- IC50 [3]: > 10000 nM

Structure (SMILES): C[C@@H]1CC(=O)NN=C1c1ccc(F)c(F)c1
- IC50 [1]: 22.4 nM
- IC50 [2]: 46.2 nM
- IC50 [3]: 33.3 nM

Structure (SMILES): C[C@@H]1CC(=O)NN=C1c1ccc(C2CCCCC2)cc1
- IC50 [1]: 7.27 nM
- IC50 [2]: 28.7 nM
- IC50 [3]: 11.3 nM

Structure (SMILES): C[C@H]1CC(=O)NN=C1c1ccc(N2CCOCC2)c(F)c1
- IC50 [1]: > 10000 nM (inactive)
- IC50 [2]: > 10000 nM
- IC50 [3]: > 10000 nM

Structure (SMILES): C[C@@H]1CC(=O)NN=C1c1ccc(Cl)cc1
- IC50 [1]: 32.7 nM
- IC50 [2]: 79.9 nM
- IC50 [3]: 42.6 nM

Structure (SMILES): C[C@@H]1CC(=O)NN=C1c1ccc(-c2cncnc2)cc1
- IC50 [1]: 12.5 nM
- IC50 [2]: 36.5 nM
- IC50 [3]: 19.6 nM

Structure (SMILES): CC(=O)Nc1ccc(C2=NNC(=O)C[C@H]2C)cc1
- IC50 [1]: 4.93 nM
- IC50 [2]: 12.7 nM
- IC50 [3]: 7.65 nM

Structure (SMILES): O=C1CN2Cc3c(ccc(Cl)c3Cl)N=C2N1
- IC50 [1]: 7.65 nM
- IC50 [2]: 17.1 nM
- IC50 [3]: 12 nM

Structure (SMILES): C[C@@H]1CC(=O)NN=C1c1ccc(N2CCOCC2)c(F)c1
- IC50 [1]: 1.59 nM
- IC50 [2]: 3.17 nM
- IC50 [3]: 2.88 nM

Structure (SMILES): C[C@@H]1CC(=O)NN=C1c1ccc(N2CCOCC2)cc1
- IC50 [1]: 13.2 nM
- IC50 [2]: 30 nM
- IC50 [3]: 20 nM

Structure (SMILES): CCN(CC)c1ccc(C2=NNC(=O)CC2C)cc1[N+](=O)[O-] (stereo unspecified)
- IC50 [1]: 6.65 nM
- IC50 [2]: 13.4 nM
- IC50 [3]: 12 nM
